# Assay: Heat stability test (stress storage at 80° C., clopidogrel content by HPLC)
# Format: physicochemical
# Conditions: tightly closed container at 80° C., day 3, content of clopidogrel by HPLC
# Protocol: Each of the (+)-clopidogrel isomer-resinate complex, so obtained from Examples 1, 2 and 8, including a solid form of (+)-clopidogrel optical isomer-Amberlite complex and (+)-clopidogrel isomer (free base), so obtained from Comparative examples 1 and 2, were put into a tightly closed container at 80° C. to determine the contents of clopidogrel in the baseline, day 1 and day 3 by HPLC analysis in accordance with a content uniformity test of the U.S. Pharmacopoeia.
# (HPLC Analysis) • Column: ULTRON ES-OVM chiral 5 ? , 4.6×250 mm • Mobile phase: 0.01 M potassium dihydrogen phosphate solution/acetonitrile 75:25 • Flow rate: 1 mL/min • Column temperature: Room temperature • Detector: Ultraviolet absorption spectrophotometer (detection wavelength: 220 nm) • Injection volume: 10 ?
structure (smiles),measurement,value
"COC(=O)[C@H](c1ccccc1Cl)N1CCc2sccc2C1 [(+)-clopidogrel isomer (free base), methyl(+)-(S)-(2-chlorophenyl)(6,7-dihydro-4H-thieno[3,2-c]pyridine-5-yl)acetate]",decrease in content at day 3,70%

# Source: patent publication US20080226579A1, “Novel Resinate Complex of S-Clopidogrel and Production Method Thereof” (Chong Kun Dang Pharmaceutical Corp., priority 2005, published 2008)
